Test results taken from patent EP2135864A1, “5-(4-methanesulfonyl-phenyl)-thiazole derivatives for the treatment of acute and chronic inflammatory diseases” (FAES FARMA, S.A., priority 2008, dated 2009).

What was measured:
Format in all cases: cell-based, human
IL-10 [1] = test: IL-10 production by PBMC from patients with rheumatoid arthritis, CBA; conditions: 24 hours, mean ± standard error, n=8
Experimental: (§1) CBA protocol was followed according to the manufacturer's instructions. The election of microparticles was performed following the summary of Figure 1.
(§2) The acquisition on samples was performed with the BD FACS Array Bioanalyser System (FACSArray, Becton Dickinson, San José, CA, USA) and the analysis of the results was completed with the software FCAP Array (Becton Dickinson) in a PC computer.
(§3) Briefly, the experimental protocol consisted of a plate pre-washing out with Wash Buffer. After decantation, the mixture of capture microparticles was re-suspended in the vortex. Standards and samples were added in the adequate dilution. After permanent stirring incubation during 1 h, the PE detection reagent was added and incubated again during 2h at room temperature. After a washing-out, the acquisition was performed in the flow cytometer. Table 3. -Kit CBA Human Soluble Protein Multiplex Flex Set System.
(§4) On the other hand, PBMC (5 x 10^4 cells per well) from 8 patients with rheumatoid arthritis were cultured in duplicate in 200 µl of complete medium supplemented with the highest solvent concentration (10^-6 M), and 10^-6 M, 10^-7 M and 10^-8 M of compound 12 in the presence and absence of either LPS (10 µg/ml) or anti-CD3 (12.5 ng/ml), + anti-CD28 (1/3x10^5), during 24 hours. Culture supernatants were frozen at -20°C and IL-10 concentration was assayed by BD FACS Array Bioanalyser by using CBA Flex Set, specific to determine IL-10 concentration, following the manufacturer instructions.

TNF-alpha = TNF-alpha production by PBMC from patients with rheumatoid arthritis, CBA; conditions: 24 hours, mean ± standard error, n=7
Experimental: as §1, §2, §3
In another experiment, PBMC (5 x 10^4 cells per well) from 7 patients with rheumatoid arthritis were cultured in duplicate in 200 µl of complete medium supplemented with the highest solvent (10^-6 M), and 10^-6 M, 10^-7 M and 10^-8 M compound 12 and in the presence and absence of either LPS (10 µg/ml), or anti-CD3 (12.5ng/ml) (Orthoclone OKT3, Ortho Pharmaceutical Corporation, Raritan NJ, USA) + anti-CD28 (1/3x10^5) (Clon 15E8, Menarini, Madrid, Spain), during 24 hours. Culture supernatants were frozen at -20°C and the concentration of TNF-alpha quantified by BD FACS Array Bioanalyser by using CBA Flex Set (Becton Dickinson), specific for determining the concentration of that cytokine, following the manufacturer instructions.

IFN-gamma = IFN-gamma production by PBMC from healthy volunteers, CBA; conditions: 24 hours, mean ± standard error, n=13
Experimental: as §1, §2, §3
PBMC (5 x 10^4 cells per well) from 13 healthy volunteers were cultured in duplicate in 200 µl of complete medium supplemented with the highest solvent concentration (10^-6 M), and 10^-6 M, 10^-7 M and 10^-8 M of compound 12 in the presence or absence, either of LPS (10 µg/ml), or anti-CD3 (12.5 ng/ml) + anti-CD28 (1/3x10^5), during 24 hours. Culture supernatants were frozen at -20°C and the concentration of IFN-gamma was quantified by BD FACS Array Bioanalyser by using CBA Flex Set (Becton Dickinson), specific to determine the concentration of IFN-gamma, following the manufacturer instructions.

IL-10 [2] = test: IL-10 production by PBMC from healthy volunteers, CBA; conditions: 24 hours, mean ± standard error, n=13
Experimental: as §1, §2, §3
The effects of compound 12 on IL-10 production by the PBMC from healthy volunteers and patients with rheumatoid arthritis were investigated in the presence and absence of LPS stimulation and with the combination of monoclonal antibodies anti-CD3 and anti-CD28. PBMC (5 x 10^4 cells per well) from 13 healthy volunteers were cultured in duplicate 200 µl of complete medium supplemented with the highest solvent concentration (10^-6 M), and 10^-6 M, 10^-7 M and 10^-8 M of compound 12, in the presence and absence of either LPS (10 µg/ml) or anti-CD3 (12.5 ng/ml), + anti-CD28 (1/3x10^5), during 24 hours.
as §4

Cc1nc(OC2CCCC2)c(-c2ccc(S(C)(=O)=O)cc2)s1 [compound 12, 4-cyclopentyloxy-5-(4-methylsulfonyl-phenyl)-2-methylthiazole]
IL-10 production in PMBC from patients with rheumatoid arthritis (IL-10 [1]; LPS (10µg/ml), 10^-6 M, vehicle 2388.64±300.00, p 0.069): 2787.12±416.91 (0.069) pg/mL
IL-10 production in PMBC from patients with rheumatoid arthritis (IL-10 [1]; LPS (10µg/ml), 10^-7 M, vehicle 2388.64±300.00, p 0.327): 2597.85±513.19 (0.327) pg/mL
IL-10 production in PMBC from patients with rheumatoid arthritis (IL-10 [1]; LPS (10µg/ml), 10^-8 M, vehicle 2388.64±300.00, p 0.025): 3000.00±400.00 (0.025) pg/mL
IL-10 production in PMBC from patients with rheumatoid arthritis (IL-10 [1]; anti-CD3 (12.5 ng/ml) + anti-CD28 (1/3x10^5), 10^-6 M, vehicle 836.39±189.09, p 0.484): 976.96±187.99 (0.484) pg/mL
IL-10 production in PMBC from patients with rheumatoid arthritis (IL-10 [1]; anti-CD3 (12.5 ng/ml) + anti-CD28 (1/3x10^5), 10^-7 M, vehicle 836.39±189.09, p 1.000): 805.41±141.23 (1.000) pg/mL
IL-10 production in PMBC from patients with rheumatoid arthritis (IL-10 [1]; anti-CD3 (12.5 ng/ml) + anti-CD28 (1/3x10^5), 10^-8 M, vehicle 836.39±189.09, p 0.674): 872.06±150.87 (0.674) pg/mL
IL-10 production in PMBC from patients with rheumatoid arthritis (IL-10 [1]; medium, 10^-6 M, vehicle 452.69±107.47, p 0.674): 682.50±113.65 (0.674) pg/mL
IL-10 production in PMBC from patients with rheumatoid arthritis (IL-10 [1]; medium, 10^-7 M, vehicle 452.69±107.47, p 0.401): 798.92±144.46 (0.401) pg/mL
IL-10 production in PMBC from patients with rheumatoid arthritis (IL-10 [1]; medium, 10^-8 M, vehicle 452.69±107.47, p 0.263): 468.14±65.80 (0.263) pg/mL
TNF-alpha production in PMBC from patients with rheumatoid arthritis (TNF-alpha; LPS (10µg/ml), 10^-6 M, vehicle 700.39±180.00, p 0.05): 383.75±75.00 (0.05) pg/ml
TNF-alpha production in PMBC from patients with rheumatoid arthritis (TNF-alpha; LPS (10µg/ml), 10^-7 M, vehicle 700.39±180.00, p 0.237): 626.57±150.00 (0.237) pg/ml
TNF-alpha production in PMBC from patients with rheumatoid arthritis (TNF-alpha; LPS (10µg/ml), 10^-8 M, vehicle 700.39±180.00, p 0.499): 683.40±120.00 (0.499) pg/ml
TNF-alpha production in PMBC from patients with rheumatoid arthritis (TNF-alpha; anti-CD3 (12.5 ng/ml) + anti-CD28 (1/3x10^5), 10^-6 M, vehicle 648.72±90.00, p 0.31): 532.07±80.00 (0.31) pg/ml
TNF-alpha production in PMBC from patients with rheumatoid arthritis (TNF-alpha; anti-CD3 (12.5 ng/ml) + anti-CD28 (1/3x10^5), 10^-7 M, vehicle 648.72±90.00, p 0.612): 568.47±97.00 (0.612) pg/ml
TNF-alpha production in PMBC from patients with rheumatoid arthritis (TNF-alpha; anti-CD3 (12.5 ng/ml) + anti-CD28 (1/3x10^5), 10^-8 M, vehicle 648.72±90.00, p 0.398): 695.81±79.00 (0.398) pg/ml
TNF-alpha production in PMBC from patients with rheumatoid arthritis (TNF-alpha; medium, 10^-6 M, vehicle 100.64±40.00, p 0.735): 177.32±95.00 (0.735) pg/ml
TNF-alpha production in PMBC from patients with rheumatoid arthritis (TNF-alpha; medium, 10^-7 M, vehicle 100.64±40.00, p 0.735): 191.33±80.00 (0.735) pg/ml
TNF-alpha production in PMBC from patients with rheumatoid arthritis (TNF-alpha; medium, 10^-8 M, vehicle 100.64±40.00, p 0.735): 131.95±85.00 (0.735) pg/ml
IFN-gamma production in PMBC from healthy volunteers (IFN-gamma; LPS (10µg/ml), 10^-6 M, vehicle 860.42±105.00, p 0.011): 649.61±120.00 (0.011) pg/mL
IFN-gamma production in PMBC from healthy volunteers (IFN-gamma; LPS (10µg/ml), 10^-7 M, vehicle 860.42±105.00, p 0.552): 919.53±130.00 (0.552) pg/mL
IFN-gamma production in PMBC from healthy volunteers (IFN-gamma; LPS (10µg/ml), 10^-8 M, vehicle 860.42±105.00, p 0.382): 1049.85±230.00 (0.382) pg/mL
IFN-gamma production in PMBC from healthy volunteers (IFN-gamma; anti-CD3 (12.5 ng/ml) + anti-CD28 (1/3x10^5), 10^-6 M, vehicle 11802.22±1300.00, p 0.019): 7927.17±1003.00 (0.019) pg/mL
IFN-gamma production in PMBC from healthy volunteers (IFN-gamma; anti-CD3 (12.5 ng/ml) + anti-CD28 (1/3x10^5), 10^-7 M, vehicle 11802.22±1300.00, p 0.917): 11552.08±1600.00 (0.917) pg/mL
IFN-gamma production in PMBC from healthy volunteers (IFN-gamma; anti-CD3 (12.5 ng/ml) + anti-CD28 (1/3x10^5), 10^-8 M, vehicle 11802.22±1300.00, p 0.196): 10254.66±1500.00 (0.196) pg/mL
IFN-gamma production in PMBC from healthy volunteers (IFN-gamma; medium, 10^-6 M, vehicle 283.78±90.00, p 0.279): 189.72±40.00 (0.279) pg/mL
IFN-gamma production in PMBC from healthy volunteers (IFN-gamma; medium, 10^-7 M, vehicle 283.78±90.00, p 0.807): 296.28±90.00 (0.807) pg/mL
IFN-gamma production in PMBC from healthy volunteers (IFN-gamma; medium, 10^-8 M, vehicle 283.78±90.00, p 0.807): 279.16±60.00 (0.807) pg/mL
IL-10 production by PMBC from healthy volunteers (IL-10 [2]; LPS (10µg/ml), 10^-6 M, vehicle 2342.20±384.02, p 0.507): 2420.68±455.50 (0.507) pg/mL
IL-10 production by PMBC from healthy volunteers (IL-10 [2]; LPS (10µg/ml), 10^-7 M, vehicle 2342.20±384.02, p 0.507): 2392.99±427.86 (0.507) pg/mL
IL-10 production by PMBC from healthy volunteers (IL-10 [2]; LPS (10µg/ml), 10^-8 M, vehicle 2342.20±384.02, p 0.701): 2389.63±366.01 (0.701) pg/mL
IL-10 production by PMBC from healthy volunteers (IL-10 [2]; anti-CD3 (12.5 ng/ml) + anti-CD28 (1/3x10^5), 10^-6 M, vehicle 1042.64±162.36, p 0.507): 1239.47±251.24 (0.507) pg/mL
IL-10 production by PMBC from healthy volunteers (IL-10 [2]; anti-CD3 (12.5 ng/ml) + anti-CD28 (1/3x10^5), 10^-7 M, vehicle 1042.64±162.36, p 0.382): 1132.69±213.32 (0.382) pg/mL
IL-10 production by PMBC from healthy volunteers (IL-10 [2]; anti-CD3 (12.5 ng/ml) + anti-CD28 (1/3x10^5), 10^-8 M, vehicle 1042.64±162.36, p 0.507): 1122.51±211.03 (0.507) pg/mL
IL-10 production by PMBC from healthy volunteers (IL-10 [2]; medium, 10^-6 M, vehicle 490.46±87.16, p 0.753): 559.06±112.20 (0.753) pg/mL
IL-10 production by PMBC from healthy volunteers (IL-10 [2]; medium, 10^-7 M, vehicle 490.46±87.16, p 0.701): 609.10±108.74 (0.701) pg/mL
IL-10 production by PMBC from healthy volunteers (IL-10 [2]; medium, 10^-8 M, vehicle 490.46±87.16, p 0.861): 578.66±106.20 (0.861) pg/mL
